“And” between values parts separate entries of the source, which are not always exact repeats. Identical values can stand only once.
What was measured:
[1] = test system: Plasmodium falciparum; test: NOVARTIS: Inhibition of Plasmodium falciparum W2 (drug-resistant) proliferation in erythrocyte-based infection assay; assay type: functional, organism-based; conditions: read-out: EC50
[2] = NOVARTIS: Cytotoxicity against human hepatocellular carcinoma cell line (Huh7); assay type: toxicity, cell-based, Huh-7; conditions: Huh7 cells (hepatocellular carcinoma cell line)
[3] = test system: Plasmodium falciparum; test: NOVARTIS: Inhibition of Plasmodium falciparum 3D7 (drug-susceptible) proliferation in erythrocyte-based infection assay; assay type: functional, organism-based

| SMILES | EC50 ([1]; Plasmodium falciparum, W2) | CC50 [2] | EC50 ([3]; Plasmodium falciparum, 3D7) | EC50 [1] | EC50 [3] |
| --- | --- | --- | --- | --- | --- |
| CCN1CCN(c2c(C(=O)c3ccccc3)cnc3cc(OC)c(OC)cc23)CC1 | 1220 nM | > 100000 nM | 3020 nM | – | – |
| O=[N+]([O-])c1cccc2c(S(=O)(=O)NCCCN(CCO)CCO)cccc12 | > 1550 nM | > 10000 nM | > 1180 nM | – | – |
| Oc1ccc(C=NN=C(Nc2ccccn2)c2ccccn2)c(O)c1 | > 674 nM | > 245 nM | > 1250 nM | – | – |
| O=C1Cc2ccccc2C(=C2CCNCC2)c2ccsc21 | 2040 nM | > 10000 nM | 532 nM | – | – |
| CC(C)CNc1nc(NCCN2CCCCC2)ncc1C(=O)NCc1ccccc1 | > 1250 nM | > 10000 nM | 1000 nM | – | – |
| CCN1CCN(c2nc3ccccn3c(=O)c2/C=C2\SC(=S)N(C(C)C)C2=O)CC1 | 260 nM | > 10000 nM | 717 nM | – | – |
| CCOC(=O)C1=C(C)NC2=C(C(=O)C(C(=O)OCC)C(c3ccccc3OC)C2)C1c1cccs1 (stereo not drawn) | 241 nM | > 100000 nM | 1830 nM | – | – |
| COc1ccc(C2=C(Nc3ccc(Br)c(C)c3)c3ccccc3C2=O)cc1 | 202 nM | > 100000 nM | 185 nM | – | – |
| CCOC(=O)c1ccc(NCc2c(C)[nH]c(C(=O)OCC)c2C)cc1 | 97.7 nM | > 100000 nM | 238 nM | – | – |
| COc1ccccc1C=CC1=NC(=Cc2ccc(SC)cc2)C(=O)O1 | 2510 nM | > 100000 nM | 2040 nM | – | – |
| COc1ccc(C2(Cc3ccccc3)NC(=O)NC2=O)cc1 (stereo not drawn) | > 1220 nM | > 10000 nM | 1340 nM | – | – |
| CCOC(=O)c1cnc2ccccc2c1NCCCN(C)C | 222 nM | 52100 nM | 198 nM | – | – |
| c1ccc2c(c1)[nH]c1ccc3ccncc3c12 | 24.2 nM | > 10000 nM | 85.3 nM | – | – |
| CCc1ccc(C(=O)Oc2ccccc2-c2nc3ccccn3c2NC(C)(C)CC(C)(C)C)cc1 | 259 nM | > 10000 nM | 1760 nM | – | – |
| CCCCN1C=Nc2cc(C(=O)NCc3ccc(OC)cc3)ccc2C1 | 243 nM | > 10000 nM | 463 nM | – | – |
| Nc1cc(-c2cccs2)n[nH]1 | > 5810 nM | > 100000 nM | > 11200 nM | – | – |
| CSc1nc2nc(C)c(Cc3cccc(C(F)(F)F)c3)c(C)n2n1 | 224 nM | > 100000 nM | 270 nM | – | – |
| CCC(C(=O)Nc1sccc1C#N)c1ccccc1 (stereo not drawn) | > 612 nM | > 10000 nM | > 971 nM | – | – |
| CCCCCn1c(C)[n+](CCCC)c2cc(Cl)c(Cl)cc21 | 1160 nM | > 100000 nM | 1240 nM | – | – |
| C=CC[n+]1ccc(/C=C/c2ccccc2)c(C)c1 | 558 nM | > 10000 nM | 656 nM | – | – |
| COc1ccc2cc3[n+](cc2c1OC)CCc1cc2c(cc1-3)OCO2 [BERBERINE CHLORIDE] | 442 nM | > 100000 nM | 218 nM | – | – |
| CN(C)c1ccc(C=NNc2nc(N)nc(N)n2)cc1 | > 1250 nM | > 10000 nM | 2000 nM | – | – |
| CC(=O)OC1(C)CC(C)C(=O)C(C(O)CC2CC(=O)NC(=O)C2)C1 (stereo not drawn) | 58.7 nM | > 5890 nM | 74.7 nM | – | – |

| SMILES | EC50 ([1]; Plasmodium falciparum, W2) | CC50 [2] | EC50 ([3]; Plasmodium falciparum, 3D7) | EC50 [1] | EC50 [3] |
| --- | --- | --- | --- | --- | --- |
| COc1ccc(C(=O)N2C(C(=O)Nc3ccc(C)cc3)CSC2c2ccc(C(C)(C)C)cc2)cc1 (stereo not drawn) | 1170 nM | > 2970 nM | 1040 nM | – | – |
| CC1OC(=O)C(C(C)C)NC(=O)C(C(C)C)OC(=O)C(C(C)C)NC(=O)C(C)OC(=O)C(C(C)C)NC(=O)C(C(C)C)OC(=O)C(C(C)C)NC(=O)C(C)OC(=O)C(C(C)C)NC(=O)C(C(C)C)OC(=O)C(C(C)C)NC1=O (stereo not drawn) | 11.7 nM | > 10000 nM | 91.6 nM | – | – |
| c1ccc(Nc2ccnc(Nc3ccccc3)n2)cc1 | 1930 nM | > 49000 nM | 804 nM | – | – |
| Cc1cccc2c1[nH]c1nc(SCC(C)C)nnc12 | 873 nM | > 100000 nM | 1480 nM | – | – |
| COc1ccc(C=CC(=O)NC(=O)c2ccccc2O)cc1 | 479 nM | > 73500 nM | 132 nM | – | – |
| CCOc1ccc(N(CC)S(=O)(=O)c2cc(Br)cc3c2N(C(C)=O)CC3)cc1 | 76.1 nM | > 100000 nM | 125 nM | – | – |
| Cc1sc2nc(C3CC3)n(C3CCN(C(=O)C4CC=CCC4)CC3)c(=O)c2c1C (stereo not drawn) | > 560 nM | > 10000 nM | > 1250 nM | – | – |
| CCC1(C)CC(CCNCc2ccccc2O)(c2ccccc2OC)CCO1 (stereo not drawn) | 96.1 nM | 23900 nM | 348 nM | – | – |
| COC(=O)C1=C(C)NC(=Cc2cc(C)n(-c3ccccc3C(F)(F)F)c2C)C1=O | 71 nM | > 100000 nM | 21.8 nM | – | – |
| CC[C@H]1CN2CC[C@H]1C[C@H]2[C@H](O)c1ccnc2ccccc12 | 696 nM | > 7910 nM | 183 nM | – | – |
| COc1ccc2ccc(OC)c(C3C(C#N)=C(N)OC4=C3C(=O)CC(C)(C)C4)c2c1 (stereo not drawn) | 864 nM | > 100000 nM | 1450 nM | – | – |
| Cc1cc(Nc2ccc(Cl)c(C)c2)n2nc(C)nc2n1 | 1000 nM | > 100000 nM | 983 nM | – | – |
| O=C1C(Nc2ccc(F)cc2)=C(N2CCCCC2)C(=O)c2ccccc21 | 319 nM | 36800 nM | 335 nM | – | – |
| C=CCNC(=O)c1ccc2c(c1)N=C(c1ccc(F)cc1)N(CCCC)C2 | 2450 nM | 16900 nM | 191 nM | – | – |
| CCN(CC)CCCC(C)NCc1ccc(OCc2ccccc2)c(OC)c1 (stereo not drawn) | 494 nM | > 10000 nM | 771 nM | – | – |
| COc1ccccc1NC(=O)c1n[nH]c(=O)c2ccccc12 | > 1250 nM | > 10000 nM | > 1060 nM | – | – |
| COC(=O)C1=C(C)NC(=Cc2cc(C)n(-c3cc(Cl)ccc3Cl)c2C)C1=O | 3680 nM | > 100000 nM | 711 nM | – | – |
| O=C(Nc1ccc(-c2nc3ccccc3[nH]2)cc1)c1ccc(-c2cccc([N+](=O)[O-])c2)o1 | 924 nM | > 100000 nM | 2240 nM | – | – |
| CCOC(=O)c1cnc2ccc(OC)cc2c1O | 1300 nM | > 100000 nM | – | 721 nM | 727 nM and 245 nM |
| O=C(Nc1ccc(-c2nc3cc(NC(=O)c4ccc(Cl)cc4)ccc3[nH]2)cc1)c1ccc(Cl)cc1 | > 12500 nM | 83800 nM | 993 nM | – | – |
| COc1ccccc1N1CCN(c2ccc(NC(=O)c3cccc(F)c3)cc2C(=O)N2CCCC2)CC1 | 6350 nM | > 100000 nM | > 12500 nM | – | – |
| Cc1cc(C)c2nc(SCC(=O)Nc3ccc4c(c3)OCCO4)cc(C)c2c1 | > 942 nM | > 10000 nM | > 1250 nM | – | – |
| O=C(CSc1nc2cc3c(cc2c(=O)n1Cc1ccco1)OCO3)Nc1cc(C(F)(F)F)ccc1Cl | 326 nM | > 100000 nM | 247 nM | – | – |

| SMILES | EC50 ([1]; Plasmodium falciparum, W2) | CC50 [2] | EC50 ([3]; Plasmodium falciparum, 3D7) | EC50 [1] | EC50 [3] |
| --- | --- | --- | --- | --- | --- |
| CCCCCCN(C(=O)c1ccccc1)C(CC)c1nc2ccccc2c(=O)n1-c1ccccc1OC (stereo not drawn) | 526 nM | > 7980 nM | 1050 nM | – | – |
| CN(C)S(=O)(=O)c1ccc(C(=O)Nc2nc3c(ccc4ccccc43)s2)cc1 | 1970 nM | > 100000 nM | > 9470 nM | – | – |
| O=C1c2ccccc2-c2nc3nnnn3nc21 | 98.7 nM | > 10000 nM | 239 nM | – | – |
| CN(C)/C=C1\Oc2ccccc2N=C1Cl | 132 nM | > 10000 nM | 153 nM | – | – |
| O=c1c(=Cc2ccc(-c3ccc([N+](=O)[O-])cc3Cl)o2)sc2nc3ccccc3n12 | > 1250 nM | > 10000 nM | > 1130 nM | – | – |
| Cc1ccccc1N1C(=O)C2C3c4ccccc4C(C(=O)O)(c4ccccc43)C2C1=O (stereo not drawn) | 2190 nM | > 100000 nM | > 12500 nM | – | – |
| FC(F)(F)c1ccccc1NC(=S)N1CCCN(c2nc3ccc(Cl)cc3s2)CC1 | 146 nM | 77800 nM | 119 nM | – | – |
| CCN1CCC(Nc2ccnc3cc4ccccc4cc23)CC1 | 477 nM | > 10000 nM | 81.5 nM | – | – |
| N#Cc1ccc(NC(=O)c2cc(Cl)ccc2O)cc1 | 1010 nM | > 10000 nM | 1090 nM | – | – |
| N#CC(C#N)C(C(Sc1ccc([N+](=O)[O-])cc1)=C(O)c1ccccc1)c1cccs1 (stereo not drawn) | 661 nM | 17700 nM | 1350 nM | – | – |
| COc1cc2nc(NCc3cccnc3)n3nc(-c4ccccc4)nc3c2cc1OC | 148 nM | > 100000 nM | 182 nM | – | – |
| Cc1cc(N2CCN(C3CCCC3)CC2)n2c(nc3ccccc32)c1C#N | 1670 nM | > 100000 nM | 743 nM | – | – |
| OCCNc1nc(Nc2ccc(F)cc2)nc2ccccc12 | 749 nM | > 100000 nM | 223 nM | – | – |
| CCc1nc2ccc(NC(=O)c3ccncc3)cc2c(=O)n1Cc1cccc(OC)c1 | 427 nM | > 570 nM | 1570 nM | – | – |
| CN(C)c1ccc(/C=C2/SC(=Nc3ccccc3)NC2=O)cc1 | 200 nM | > 10000 nM | 109 nM | – | – |
| CC(C)N(CC(=O)Nc1cc(C(C)(C)C)nn1-c1ccc(Cl)c(Cl)c1)C(=O)c1ccc(C(F)(F)F)cc1 | 1330 nM | > 10000 nM | 845 nM | – | – |
| COc1ccc(CCN(C(=S)Nc2ccccc2)C2CC(=O)N(c3ccc(F)cc3)C2=O)cc1OC (stereo not drawn) | 1560 nM | > 1910 nM | > 1740 nM | – | – |
| COc1ccccc1NC1=CC(=NS(=O)(=O)c2ccc(F)cc2)c2ccccc2C1=O | 431 nM | 20600 nM | 375 nM | – | – |
| Cc1cccc(Nc2c3c(c(C#N)c4nc5ccccc5n24)CCC3)c1 | 51.8 nM | > 100000 nM | 92.6 nM | – | – |
| O=C1CN(C(=O)CCC2CCCC2)C(c2ccc(F)cc2)c2cc(F)ccc2N1 (stereo not drawn) | 230 nM | 60300 nM | 666 nM | – | – |
| C#CC(C)(C)NC(=O)c1ccc(-c2ccc(CC)cc2)cc1 | 1970 nM | > 100000 nM | 3030 nM | – | – |
| C=CC1(C)CC23CC(C(OC(=O)c4ccccc4)c4ccnc5ccccc45)N2CCC13 (stereo not drawn) | 938 nM | 29200 nM | 176 nM | – | – |
| Ic1ccc(NCc2cn3ccccc3n2)cc1 | 4070 nM | > 100000 nM | 6370 nM | – | – |

From ChEMBL document CHEMBL1156829 (Proc Natl Acad Sci U S A, 2008)
